{"source": "patent US11214594B2", "about": "“Antimicrobial peptide having synergistic antibacterial effect with antibiotics on multidrug resistant bacteria, and use thereof” (priority 2016, dated 2022)", "key": {"gram-negative bacteria": {"tested_on": "gram-negative bacteria", "experiment": "MIC, summary statements for gram-negative bacteria", "type": "cell-based", "details": "most of the gram-negative bacteria", "outline": "(§1)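 Each strain is brought to 2×10^6 CFU in nutrient-sufficient Mueller-Hinton medium and dispensed into wells. Peptide solutions, stepwise diluted 2:1 in the same medium, are then added. The minimal concentration preventing growth gives the MIC.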"}, "MDRAB 12035 [1]": {"tested_on": "MDRAB 12035", "experiment": "MIC of antibiotic during combined treatment with antimicrobial peptide", "type": "cell-based, Acinetobacter baumannii", "outline": "(§2)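 Broth microdilution in MH medium; strains were diluted to 2×10^6 CFU per ml before plating. Peptide was serially diluted stepwise at 2:1 starting from its MIC, and MH-diluted antibiotic was then added to determine MIC. The reversed arrangement was also tested.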"}, "MDRAB 12035 [2]": {"tested_on": "MDRAB 12035", "experiment": "microbe, parasite or virus in culture", "type": "cell-based, Acinetobacter baumannii", "outline": "as §1"}, "A. baumannii [3]": {"tested_on": "A. baumannii", "experiment": "microbe, parasite or virus in culture", "type": "cell-based, Acinetobacter baumannii", "outline": "as §1"}, "A. baumannii [4]": {"tested_on": "A. baumannii", "experiment": "MIC of antibiotic during combined treatment with antimicrobial peptide", "type": "cell-based, Acinetobacter baumannii", "details": "for Antibiotic MIC, Erythromycin / Antibiotic MIC, Linezolid / Antibiotic MIC, Vancomycin: A. baumannii", "outline": "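First, antibiotic solution is diluted with MH medium; next, the dilution is dispensed into wells containing peptide; finally, the orientation is swapped and MIC of each mixture determined.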"}, "B. subtilis": {"tested_on": "B. subtilis", "experiment": "microbe, parasite or virus in culture", "type": "cell-based, Bacillus subtilis", "outline": "as §1"}, "MDRPA 2002": {"tested_on": "MDRPA 2002", "type": "cell-based, Pseudomonas aeruginosa", "outline": "as §1"}, "MDRPA 2003": {"tested_on": "MDRPA 2003", "type": "cell-based, Pseudomonas aeruginosa", "outline": "as §1"}, "MDREC 1229": {"tested_on": "MDREC 1229", "type": "cell-based, Escherichia coli", "outline": "as §2"}, "E. coli": {"tested_on": "E. coli", "type": "cell-based, Escherichia coli", "details": "E. coli", "outline": "as §2"}, "[5]": {"details": "peptide treatment concentration 1 μg/ml"}, "[6]": {"details": "peptide treatment concentration 2 μg/ml"}, "[7]": {"details": "peptide treatment concentration 4 μg/ml"}, "[8]": {"details": "peptide treatment concentration 6 μg/ml"}, "[9]": {"details": "peptide treatment concentration 8 μg/ml"}, "[10]": {"details": "peptide treatment concentration 16 μg/ml"}, "[11]": {"details": "peptide treatment concentration 32 μg/ml"}, "[12]": {"details": "peptide treatment concentration 64 μg/ml"}, "[13]": {"details": "combined with peptide at 1 μg/ml"}, "[14]": {"details": "combined with peptide at 2 μg/ml"}, "[15]": {"details": "combined with peptide at 4 μg/ml"}, "[16]": {"details": "combined with peptide at 6 μg/ml"}, "[17]": {"details": "combined with peptide at 8 μg/ml"}, "[18]": {"details": "combined with peptide at 16 μg/ml"}, "[19]": {"details": "combined with peptide at 32 μg/ml"}, "[20]": {"details": "combined with peptide at 64 μg/ml"}, "[21]": {"details": "with Erythromycin […] (Conc./MIC 1)"}}, "note": "Where two headings read alike, the source gives them in different places. Where a SMILES comes first, the peptide text is derived from it.", "data": [{"smiles": "CC[C@H](C)[C@H](NC(=O)[C@H](CCCCN)NC(=O)[C@H](Cc1c[nH]c2ccccc12)NC(=O)[C@@H](N)CCCNC(=N)N)C(=O)N[C@@H](Cc1ccccc1)C(=O)N[C@@H](CCCCN)C(=O)N[C@@H](CCCCN)C(=O)N[C@H](C(=O)N1CCC[C@H]1C(=O)N[C@@H](CCCCN)C(=O)N[C@@H](CC(C)C)C(=O)N[C@@H](CC(C)C)C(=O)N[C@@H](Cc1c[nH]cn1)C(=O)N[C@@H](CO)C(=O)N[C@@H](CC(C)C)C(=O)N[C@@H](CCCCN)C(=O)N[C@@H](CCCCN)C(=O)N[C@@H](Cc1ccccc1)C(N)=O)[C@@H](C)CC", "note": "[PapMA-8, RWK IFK KIP KLL HSL KKF-NH2] (H-RWKIFKKIPKLLHSLKKF-NH2; N-terminus assumed)", "values": [{"measurement": "Antibacterial activity relative to PapMA-1, PapMA-2, PapMA-3 and PapMA-4", "setting": "gram-negative bacteria", "value": "same or higher"}, {"measurement": "Erythromycin MIC during combined treatment with peptide", "setting": "MDRAB 12035 [1]; [5]", "value": 32, "unit": "µg/mL"}, {"measurement": "Linezolid MIC during combined treatment with peptide", "setting": "MDRAB 12035 [1]; [5]", "value": ">128", "unit": "µg/mL"}, {"measurement": "Vancomycin MIC during combined treatment with peptide", "setting": "MDRAB 12035 [1]; [5]", "value": ">128", "unit": "µg/mL"}, {"measurement": "Erythromycin MIC during combined treatment with peptide", "setting": "MDRAB 12035 [1]; [6]", "value": 32, "unit": "µg/mL"}, {"measurement": "Linezolid MIC during combined treatment with peptide", "setting": "MDRAB 12035 [1]; [6]", "value": ">128", "unit": "µg/mL"}, {"measurement": "Vancomycin MIC during combined treatment with peptide", "setting": "MDRAB 12035 [1]; [6]", "value": ">128", "unit": "µg/mL"}, {"measurement": "Erythromycin MIC during combined treatment with peptide", "setting": "MDRAB 12035 [1]; [7]", "value": 16, "unit": "µg/mL"}, {"measurement": "Linezolid MIC during combined treatment with peptide", "setting": "MDRAB 12035 [1]; [7]", "value": 64, "unit": "µg/mL"}, {"measurement": "Vancomycin MIC during combined treatment with peptide", "setting": "MDRAB 12035 [1]; [7]", "value": 64, "unit": "µg/mL"}, {"measurement": "Erythromycin MIC during combined treatment with peptide", "setting": "MDRAB 12035 [1]; [8]", "value": 8, "unit": "µg/mL"}, {"measurement": "Linezolid MIC during combined treatment with peptide", "setting": "MDRAB 12035 [1]; [8]", "value": 32, "unit": "µg/mL"}, {"measurement": "Vancomycin MIC during combined treatment with peptide", "setting": "MDRAB 12035 [1]; [8]", "value": 32, "unit": "µg/mL"}, {"measurement": "Erythromycin MIC during combined treatment with peptide", "setting": "MDRAB 12035 [1]; [9]", "value": 4, "unit": "µg/mL"}, {"measurement": "Linezolid MIC during combined treatment with peptide", "setting": "MDRAB 12035 [1]; [9]", "value": 16, "unit": "µg/mL"}, {"measurement": "Vancomycin MIC during combined treatment with peptide", "setting": "MDRAB 12035 [1]; [9]", "value": 8, "unit": "µg/mL"}, {"measurement": "Erythromycin MIC during combined treatment with peptide", "setting": "MDRAB 12035 [1]; [10]", "value": 2, "unit": "µg/mL"}, {"measurement": "Linezolid MIC during combined treatment with peptide", "setting": "MDRAB 12035 [1]; [10]", "value": 4, "unit": "µg/mL"}, {"measurement": "Vancomycin MIC during combined treatment with peptide", "setting": "MDRAB 12035 [1]; [10]", "value": 4, "unit": "µg/mL"}, {"measurement": "Erythromycin MIC during combined treatment with peptide", "setting": "MDRAB 12035 [1]; [11]", "value": 1, "unit": "µg/mL"}, {"measurement": "Linezolid MIC during combined treatment with peptide", "setting": "MDRAB 12035 [1]; [11]", "value": 2, "unit": "µg/mL"}, {"measurement": "Vancomycin MIC during combined treatment with peptide", "setting": "MDRAB 12035 [1]; [11]", "value": 2, "unit": "µg/mL"}, {"measurement": "Erythromycin MIC during combined treatment with peptide", "setting": "MDRAB 12035 [1]; [12]", "value": 0, "unit": "µg/mL"}, {"measurement": "Linezolid MIC during combined treatment with peptide", "setting": "MDRAB 12035 [1]; [12]", "value": 0, "unit": "µg/mL"}, {"measurement": "Vancomycin MIC during combined treatment with peptide", "setting": "MDRAB 12035 [1]; [12]", "value": 0, "unit": "µg/mL"}, {"measurement": "Minimal inhibitory concentration MIC", "setting": "MDRAB 12035 [2]", "value": 64, "unit": "µg/mL"}, {"measurement": "Peptide MIC, peptide alone", "setting": "MDRAB 12035 [2]", "value": 64, "unit": "µg/mL"}, {"measurement": "Minimal inhibitory concentration MIC", "setting": "A. baumannii [3]", "value": 32, "unit": "µg/mL"}, {"measurement": "Peptide MIC, peptide alone", "setting": "A. baumannii [3]", "value": 32, "unit": "µg/mL"}, {"measurement": "Synergistic effect of antibacterial activity with existing antibiotics compared with PapMA-1", "setting": "A. baumannii [4]; A. baumannii and MDRAB 12035", "value": "higher level than the PapMA-1 peptide"}, {"measurement": "Antibiotic MIC, Erythromycin", "setting": "A. baumannii [4]; [13]", "value": 32, "unit": "µg/mL"}, {"measurement": "Antibiotic MIC, Linezolid", "setting": "A. baumannii [4]; [13]", "value": ">128", "unit": "µg/mL"}, {"measurement": "Antibiotic MIC, Vancomycin", "setting": "A. baumannii [4]; [13]", "value": ">128", "unit": "µg/mL"}, {"measurement": "Antibiotic MIC, Erythromycin", "setting": "A. baumannii [4]; [14]", "value": 8, "unit": "µg/mL"}, {"measurement": "Antibiotic MIC, Linezolid", "setting": "A. baumannii [4]; [14]", "value": 64, "unit": "µg/mL"}, {"measurement": "Antibiotic MIC, Vancomycin", "setting": "A. baumannii [4]; [14]", "value": ">128", "unit": "µg/mL"}, {"measurement": "Antibiotic MIC, Erythromycin", "setting": "A. baumannii [4]; [15]", "value": 4, "unit": "µg/mL"}, {"measurement": "Antibiotic MIC, Linezolid", "setting": "A. baumannii [4]; [15]", "value": 32, "unit": "µg/mL"}, {"measurement": "Antibiotic MIC, Vancomycin", "setting": "A. baumannii [4]; [15]", "value": 32, "unit": "µg/mL"}, {"measurement": "Antibiotic MIC, Erythromycin", "setting": "A. baumannii [4]; [16]", "value": 4, "unit": "µg/mL"}, {"measurement": "Antibiotic MIC, Linezolid", "setting": "A. baumannii [4]; [16]", "value": 16, "unit": "µg/mL"}, {"measurement": "Antibiotic MIC, Vancomycin", "setting": "A. baumannii [4]; [16]", "value": 16, "unit": "µg/mL"}, {"measurement": "Antibiotic MIC, Erythromycin", "setting": "A. baumannii [4]; [17]", "value": 0.25, "unit": "µg/mL"}, {"measurement": "Antibiotic MIC, Linezolid", "setting": "A. baumannii [4]; [17]", "value": 4, "unit": "µg/mL"}, {"measurement": "Antibiotic MIC, Vancomycin", "setting": "A. baumannii [4]; [17]", "value": 8, "unit": "µg/mL"}, {"measurement": "Antibiotic MIC, Erythromycin", "setting": "A. baumannii [4]; [18]", "value": 0.125, "unit": "µg/mL"}, {"measurement": "Antibiotic MIC, Linezolid", "setting": "A. baumannii [4]; [18]", "value": 1, "unit": "µg/mL"}, {"measurement": "Antibiotic MIC, Vancomycin", "setting": "A. baumannii [4]; [18]", "value": 4, "unit": "µg/mL"}, {"measurement": "Antibiotic MIC, Erythromycin", "setting": "A. baumannii [4]; [19]", "value": 0, "unit": "µg/mL"}, {"measurement": "Antibiotic MIC, Linezolid", "setting": "A. baumannii [4]; [19]", "value": 0, "unit": "µg/mL"}, {"measurement": "Antibiotic MIC, Vancomycin", "setting": "A. baumannii [4]; [19]", "value": 0, "unit": "µg/mL"}, {"measurement": "Antibiotic MIC, Erythromycin", "setting": "A. baumannii [4]; [20]", "value": 0, "unit": "µg/mL"}, {"measurement": "Antibiotic MIC, Linezolid", "setting": "A. baumannii [4]; [20]", "value": 0, "unit": "µg/mL"}, {"measurement": "Antibiotic MIC, Vancomycin", "setting": "A. baumannii [4]; [20]", "value": 0, "unit": "µg/mL"}, {"measurement": "Minimal inhibitory concentration MIC", "setting": "B. subtilis", "value": ">128", "unit": "µg/mL"}, {"measurement": "Minimal inhibitory concentration MIC", "setting": "MDRPA 2002", "value": 16, "unit": "µg/mL"}, {"measurement": "Minimal inhibitory concentration MIC", "setting": "MDRPA 2003", "value": 16, "unit": "µg/mL"}, {"measurement": "Peptide MIC", "setting": "MDREC 1229; [21]", "value": 0, "unit": "µg/mL"}, {"measurement": "Peptide MIC", "setting": "MDREC 1229; with Linezolid 512 μg/ml (Conc./MIC 1)", "value": 0, "unit": "µg/mL"}, {"measurement": "Peptide MIC", "setting": "E. coli; [21]", "value": 0, "unit": "µg/mL"}, {"measurement": "Peptide MIC", "setting": "E. coli; with Linezolid […] (Conc./MIC 1)", "value": 0, "unit": "µg/mL"}, {"measurement": "Peptide MIC", "setting": "E. coli; with Vancomycin 1024 μg/ml (Conc./MIC 1)", "value": 0, "unit": "µg/mL"}]}]}
